Like-named read-outs stand apart in the source and are kept apart here.

Experiment [1] deals with human orexin-1 receptor (hOX1R) (Homo sapiens (Human), UniProt O43613). Nature of the experiment: Measurement of orexin antagonistic activity (intracellular Ca2+ fluorescence, FDSS), hOX1R. Type of experiment: cell-based. The following applies: ligand peptide (modified human orexin-A) 300 pM, maximum fluorescence intensity. As for the experimental part: (§1) Chinese hamster ovary (CHO) cells forcibly expressing the hOX1R and hOX2R were seeded into a 96 well Black clear bottom plate (Nunc) at 20,000 cells per well, which were cultured in Ham's F-12 medium containing 0.1 mM MEM non-essential amino acids, 0.5 mg/ml G418, 10% fetal bovine serum (all by Invitrogen) for 16 hours under the conditions of 37° C., 5% CO2. After removing the medium, 100 μL of 0.5 μM Fluo-4AM ester (Dojin) in an assay buffer (25 mM HEPES (Dojin), Hank's balanced salt solution (Invitrogen), 0.1% bovine serum albumin, 2.5 mM probenecid, 200 μg/ml Amaranth (all by Sigma-Aldrich), pH 7.4) was added and the cells were incubated for 60 minutes at 37° C., 5% CO2. After removing the assay buffer containing fluo-3AM ester, the test compound was dissolved in dimethyl sulfoxide to be 10 mM and diluted with the assay buffer, 150 μL of which was added and incubated for 30 minutes.
human orexin-1 receptor (hOX1R), sequence (O43613 whole entry): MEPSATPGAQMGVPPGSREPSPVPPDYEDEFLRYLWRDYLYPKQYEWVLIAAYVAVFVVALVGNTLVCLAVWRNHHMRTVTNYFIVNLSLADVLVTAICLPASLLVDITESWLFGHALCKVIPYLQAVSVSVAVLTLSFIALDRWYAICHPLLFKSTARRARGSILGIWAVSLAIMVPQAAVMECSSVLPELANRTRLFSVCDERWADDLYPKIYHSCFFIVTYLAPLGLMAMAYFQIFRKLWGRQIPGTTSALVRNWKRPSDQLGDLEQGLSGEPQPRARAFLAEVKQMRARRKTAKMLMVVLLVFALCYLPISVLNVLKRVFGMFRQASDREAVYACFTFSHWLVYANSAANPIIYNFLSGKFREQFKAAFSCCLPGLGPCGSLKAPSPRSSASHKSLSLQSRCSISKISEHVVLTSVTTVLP
(§2) The reaction was measured for the fluorescence intensity of each well every second for 3 minutes using Functional Drug Screening System (FDSS; Hamamatsu Photonics K.K.), and the antagonistic activity was determined using the maximum fluorescence intensity as the indicator of intracellular Ca2+ concentration.

The target in experiment [2] is human orexin-2 receptor (hOX2R) (Homo sapiens (Human), UniProt O43614). Briefly: Measurement of orexin antagonistic activity (intracellular Ca2+ fluorescence, FDSS), hOX2R. It is filed as cell-based. As for the experimental part: as §1, with “The antagonistic activities of the test compounds on human orexin-1 receptor (hOX1R) and orexin-2 receptor (hOX2R) were measured by modifying from the method described in literature (Toshikatsu Okumura et al., Biochemical and Biophysical Research Communications 280, 976-981, 2001). Chinese” for “Chinese”
human orexin-2 receptor (hOX2R), sequence (O43614 whole entry): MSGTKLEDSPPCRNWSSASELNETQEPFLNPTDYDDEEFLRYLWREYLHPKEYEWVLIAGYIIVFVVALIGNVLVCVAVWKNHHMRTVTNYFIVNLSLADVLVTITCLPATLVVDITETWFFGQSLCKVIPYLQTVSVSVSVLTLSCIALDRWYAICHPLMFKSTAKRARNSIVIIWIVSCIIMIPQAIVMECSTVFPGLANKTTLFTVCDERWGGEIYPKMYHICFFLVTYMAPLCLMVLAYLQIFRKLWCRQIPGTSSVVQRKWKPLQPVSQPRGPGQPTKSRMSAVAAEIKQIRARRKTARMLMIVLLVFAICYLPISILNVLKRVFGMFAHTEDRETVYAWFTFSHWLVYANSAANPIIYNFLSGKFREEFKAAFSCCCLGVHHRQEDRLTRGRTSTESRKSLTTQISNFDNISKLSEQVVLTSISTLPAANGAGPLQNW
as §2

Setting [3] is: CHO cells forcibly expressing hOX1R, read-out: IC50 Value OX1.
The mark [4] stands for this setting: CHO cells forcibly expressing hOX2R, ligand peptide (modified human orexin-A) 3 nM, maximum fluorescence intensity, read-out: IC50 Value OX2.

Regarding `Cc1ccc(-n2nccn2)c(C(=O)N2CCOC2Cn2cc(-c3ccc(F)cc3)cn2)n1` (racemic) [Example 23, (±)-(2-[[4-(4-fluorophenyl)-1H-pyrazol-1-yl]methyl]-1,3-oxazolidin-3-yl)[6-methyl-3-(2H-1,2,3-triazol-2-yl)pyridin-2-yl]methanone], the IC50 in experiment [1] (setting [3]) was determined as 96.3 nM; in experiment [2] (setting [4]), 112 nM.

For `Cc1ccc(-c2ncccn2)c(C(=O)N2CCCOC2Cc2noc(-c3ccc(F)cn3)n2)c1` (racemic) [Example 33, (±)-(2-[[5-(5-fluoropyridin-2-yl)-1,2,4-oxadiazol-3-yl]methyl]-1,3-oxazinan-3-yl) [5-methyl-2-(pyrimidin-2-yl)phenyl]methanone], the values for the IC50 in experiment [1] (setting [3]) and in experiment [2] (setting [4]) were 3590 nM and 4540 nM, respectively.

On to `Cc1ccc(-c2ncccn2)c(C(=O)N2CCCOC2Cc2cnn(-c3ccc(F)cn3)c2)c1` (racemic) [Example 42, (±)-[2-[[1-(5-fluoropyridin-2-yl)-1H-pyrazol-4-yl]methyl]-1,3-oxazinan-3-yl] [5-methyl-2-(pyrimidin-2-yl)phenyl]methanone], for which the IC50 in experiment [1] (setting [3]) is 17.2 nM; in experiment [2] (setting [4]) it was 20.4 nM.

As for `Cc1ccc(-n2nccn2)c(C(=O)N2CCOC2Cn2cc(-c3ccc(F)cn3)cn2)c1` (single isomer, unassigned; (-)) [Example 2, (−)-(2-[[4-(5-fluoropyridin-2-yl)-1H-pyrazol-1-yl]-methyl]-1,3-oxazolidin-3-yl)[5-methyl-2-(2H-1,2,3-triazol-2-yl)phenyl] methanone], the half-inhibitory concentration (IC50) was found to be 14.3 nM in experiment [1] (setting [3]) and 18.6 nM in experiment [2] (setting [4]).

Turning to `Cc1ccc(-n2nccn2)c(C(=O)N2CCCOC2Cn2ccc(-c3ccc(F)cn3)n2)c1` (single isomer, unassigned; (-)) [Example 3, (−)-(2-[[3-(5-fluoropyridin-2-yl)-1H-pyrazol-1-yl]-methyl]-1,3-oxazinan-3-yl)[5-methyl-2-(2H-1,2,3-triazol-2-yl)phenyl] methanone], the IC50 in experiment [1] (IC50 Value OX1, CHO cells forcibly expressing hOX1R) was 0.7 nM; in experiment [2], 1.2 nM.

For `Cc1ccc(-n2nccn2)c(C(=O)N2CCOC2Cn2ccc(-c3ccc(F)cc3)n2)n1` (single isomer, unassigned; (-)) [Example 26, (−)-(2-[[3-(4-fluorophenyl)-1H-pyrazol-1-yl]methyl]-1,3-oxazolidin-3-yl) [6-methyl-3-(2H-1,2,3-triazol-2-yl)pyridin-2-yl] methanone], the IC50 was found to be 21.7 nM in experiment [1] (setting [3]) and 59.1 nM in experiment [2] (setting [4]).

For the compound `Cc1ccc(-n2nccn2)c(C(=O)N2CCCOC2Cn2ccc(-c3ccc(F)cc3)n2)n1` (single isomer, unassigned; (-)) [Example 27, (−)-(2-[[3-(4-fluorophenyl)-1H-pyrazol-1-yl]methyl]-1,3-oxazinan-3-yl)[6-methyl-3-(2H-1,2,3-triazol-2-yl)pyridin-2-yl]methanone], the IC50 in experiment [1] (setting [3]) turned out to be 0.9 nM; in experiment [2] (setting [4]), 3 nM.

Regarding `Cc1ccc(-c2ncccn2)c(C(=O)N2CCCOC2Cn2ccc(-c3ccc(F)cc3)n2)n1` (single isomer, unassigned; (-)) [Example 28, (−)-(2-[[3-(4-fluorophenyl)-1H-pyrazol-1-yl]methyl]-1,3-oxazinan-3-yl)[6-methyl-3-(pyrimidin-2-yl)pyridin-2-yl] methanone], the 50% inhibitory concentration (IC50) in experiment [1] (setting [3]) was determined as 2.4 nM; in experiment [2] (setting [4]) it was 4 nM.

Regarding `O=C(c1cc(F)ccc1-n1nccn1)N1CCCOC1Cn1ccc(-c2ccc(F)cn2)n1` (single isomer, unassigned; (-)) [Example 29, (−)-(2-[[3-(5-fluoropyridin-2-yl)-1H-pyrazol-1-yl]methyl]-1,3-oxazinan-3-yl)[5-fluoro-2-(2H-1,2,3-triazol-2-yl)phenyl]methanone], the values for the IC50 in experiment [1] (setting [3]) and in experiment [2] (setting [4]) were 3.2 nM and 1.2 nM, respectively.

Take `Cc1ccc(-c2ncccn2)c(C(=O)N2CCCOC2Cn2ccc(-c3ccc(F)cn3)n2)c1` (single isomer, unassigned; (-)) [Example 30]: the half-maximal inhibitory concentration (IC50) in experiment [1] (setting [3]) turned out to be 2.6 nM; in experiment [2] (setting [4]), 3 nM.

With `Cc1ccc(-n2nccn2)c(C(=O)N2CCCOC2Cn2cc(-c3ccc(F)cc3)cn2)n1` (single isomer, unassigned; (-)) [Example 31, (−)-(2-[[4-(4-fluorophenyl)-1H-pyrazol-1-yl]methyl]-1,3-oxazinan-3-yl) [6-methyl-3-(2H-l,2,3-triazol-2-yl)pyridin-2-yl] methanone], the IC50 in experiment [1] (setting [3]) amounted to 10.9 nM; in experiment [2] (setting [4]), 7.3 nM.

On to `Cc1ccc(-c2ncccn2)c(C(=O)N2CCCOC2Cn2cc(-c3ccc(F)cc3)cn2)n1` (single isomer, unassigned; (-)) [Example 32, (−)-(2-[[4-(4-fluorophenyl)-1H-pyrazol-1-yl]methyl]-l,3-oxazinan-3-yl)[6-methyl-3-(pyrimidin-2-yl)pyridin-2-yl] methanone], for which the results for the IC50 in experiment [1] (setting [3]) and in experiment [2] (setting [4]) were 34.4 nM and 22.6 nM, respectively.

Regarding `O=C(c1cc(F)ccc1-c1ncccn1)N1CCCOC1Cn1ccc(-c2ccc(F)cn2)n1` (single isomer, unassigned; (-)) [Example 34, (−)-[2-[[3-(5-fluoropyridin-2-yl)-1H-pyrazol-1-yl]methyl]-l,3-oxazinan-3-yl] [5-fluoro-2-(pyrimidin-2-yl)phenyl]methanone], the IC50 in experiment [1] (setting [3]) was determined as 2.2 nM; in experiment [2] (setting [4]), 6.2 nM.

Consider `Cc1ccc(-n2nccn2)c(C(=O)N2CCCOC2Cc2noc(-c3ccc(F)cn3)n2)c1` (single isomer, unassigned; (-)) [Example 36, (−)-[2-[[5-(5-fluoropyridin-2-yl)-1,2,4-oxadiazol-3-yl]methyl]-1,3-oxazinan-3-yl] [5-methyl-2-(2H-1,2,3-triazol-2-yl)phenyl] methanone], for which the IC50 in experiment [1] (setting [3]) amounted to 3.8 nM; in experiment [2] (setting [4]), 6.9 nM.

Regarding `Cc1ccc(-n2nccn2)c(C(=O)N2CCCOC2Cc2noc(-c3ccc(F)cc3)n2)c1` (single isomer, unassigned; (-)) [Example 37, (−)-[2-[[5-(4-fluorophenyl)-1,2,4-oxadiazol-3-yl]methyl]-1,3-oxazinan-3-yl] [5-methyl-2-(2H-1,2,3-triazol-2-yl)phenyl] methanone], the IC50 came to 1.1 nM in experiment [1] (setting [3]) and 1.7 nM in experiment [2] (setting [4]).

As to `Cc1ccc(-n2nccn2)c(C(=O)N2CCCOC2Cc2noc(-c3ccc(F)cc3)n2)n1` (single isomer, unassigned; (-)) [Example 38, (−)-[2-[[5-(4-fluorophenyl)-1,2,4-oxadiazol-3-yl]methyl]-1,3-oxazinan-3-yl] [6-methyl-3-(2H-1,2,3-triazol-2-yl)pyridin-2-yl] methanone], the IC50 was 2.1 nM in experiment [1] (setting [3]) and 7.3 nM in experiment [2] (setting [4]).

For `Cc1ccc(-c2ncccn2)c(C(=O)N2CCCOC2Cn2ccc(-c3ccc(F)cc3)n2)c1` (single isomer, unassigned; (-)) [Example 41, (−)-[2-{[3-(4-Fluorophenyl)-1H-pyrazol-1-yl]methyl}-1,3-oxazinan-3-yl][5-methyl-2-(pyrimidin-2-yl)phenyl]methanone], the IC50 in experiment [1] (setting [3]) and in experiment [2] (setting [4]) was 1 nM throughout.

Regarding `Cc1ccc(-n2nccn2)c(C(=O)N2CCOC2Cc2ccn(-c3ccc(F)cn3)n2)c1` (single isomer, unassigned; (-)) [Example 45, (−)-[2-{[1-(5-Fluoropyridin-2-yl)-1H-pyrazol-3-yl]methyl}-1,3-oxazolidin-3-yl][5-methyl-2-(2H-1,2,3-triazol-2-yl)phenyl]methanone], the IC50 in experiment [1] (setting [3]) came to 2.7 nM; in experiment [2] (setting [4]), 12.1 nM.

In the case of `Cc1ccc(-n2nccn2)c(C(=O)N2CCOC2Cc2cnn(-c3ccc(F)cn3)c2)c1` (single isomer, unassigned; (-)) [Example 46, (−)-[2-{[1-(5-Fluoropyridin-2-yl)-1H-pyrazol-4-yl]methyl}-1,3-oxazolidin-3-yl][5-methyl-2-(2H-1,2,3-triazol-2-yl)phenyl]methanone], the IC50 was 31.9 nM in experiment [1] (setting [3]) and 38.7 nM in experiment [2] (setting [4]).

As for `Cc1ccc(-n2nccn2)c(C(=O)N2[C@H](C)CO[C@H]2Cn2cc(-c3ccc(F)cn3)cn2)c1` [Example 8, [(2S,4R)-2-[[4-(5-fluoropyridin-2-yl)-1H-pyrazol-1-yl]-methyl]-4-methyl-1,3-oxazolidin-3-yl] [5-methyl-2-(2H-1,2,3-triazol-2-yl)phenyl] methanone], the IC50 in experiment [1] (setting [3]) stood at 60.9 nM; in experiment [2] (setting [4]), 460 nM.

In general, IC50 refers to the midpoint of a concentration-inhibition curve.

The values are drawn from US9266870B2 (TAISHO PHARMACEUTICAL CO., LTD., priority 2012, dated 2016).
